Data from PubChem BioAssay (NCI).
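1) Cells in 96-well plates. 2) Compound, 48 h, 5 concentrations. 3) Linear interpolation between surrounding doses. 4) Unreached endpoint = highest concentration. TGI: concentration producing complete growth inhibition.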

How the values were obtained:
Assay in all cases: inhibition of tumour cell growth, NCI panel, 48 h
[1] = test system: A498 renal
[2] = test system: RPMI-8226 leukemia
[3] = test system: SF-295 CNS
[4] = test system: NCI-H23 lung
[5] = test system: UACC-257 melanoma
[6] = test system: OVCAR-8 ovarian
[7] = test system: UO-31 renal
[8] = test system: HCC-2998 colon
[9] = test system: CCRF-CEM leukemia
[10] = test system: SK-MEL-28 melanoma
[11] = test system: KM12 colon
[12] = test system: SF-539 CNS
[13] = test system: MOLT-4 leukemia
[14] = test system: A549 NSCLC
[15] = test system: UACC-62 melanoma
[16] = test system: SK-OV-3 ovarian
[17] = test system: NCI-H522 lung
[18] = test system: SN12C renal
[19] = test system: SF-268 CNS
[20] = test system: IGROV1 ovarian

Work on `CCOC(=O)c1csc(NC(=O)CCCC#N)n1` yielded a TGI [1] greater than 100 µM, a TGI [2] greater than 100 µM and a TGI [3] greater than 100 µM. For the same compound, the TGI [4] was greater than 100 µM, the TGI [5] was greater than 100 µM and the TGI [6] was greater than 100 µM. The TGI [7] was greater than 100 µM, the TGI [8] was greater than 100 µM and the TGI [9] was greater than 100 µM. It also gave a TGI [10] greater than 100 µM, a TGI [11] greater than 100 µM and a TGI [12] greater than 100 µM. The TGI [13] was greater than 100 µM, the TGI [14] was greater than 100 µM and the TGI [15] was greater than 100 µM. It also gave a TGI [16] greater than 100 µM.
For `c1ccc([P+](Cc2csnn2)(c2ccccc2)c2ccccc2)cc1`, the TGI [1] was greater than 100 µM, the TGI [17] was greater than 100 µM and the TGI [2] was greater than 100 µM. For the same compound, the TGI [3] was greater than 100 µM, the TGI [4] was greater than 100 µM and the TGI [5] was greater than 100 µM. The TGI [6] was greater than 100 µM, the TGI [7] was greater than 100 µM and the TGI [18] was greater than 100 µM. It also gave a TGI [8] greater than 100 µM, a TGI [9] greater than 100 µM and a TGI [10] greater than 100 µM. The TGI [11] was greater than 100 µM, the TGI [12] was greater than 100 µM and the TGI [19] was greater than 100 µM. For the same compound, the TGI [13] was greater than 100 µM, the TGI [14] was greater than 100 µM and the TGI [20] was greater than 100 µM. For the same compound, the TGI [15] was greater than 100 µM and the TGI [16] was greater than 100 µM.
With `O=C(NN1C(=O)CSC1c1ccc(Cl)c(Cl)c1)c1ccncc1` (stereo not given) the TGI [1] was greater than 100 µM, the TGI [17] was greater than 100 µM and the TGI [2] was greater than 100 µM. The TGI [3] was greater than 100 µM, the TGI [4] was greater than 100 µM and the TGI [5] was greater than 100 µM. It also gave a TGI [6] greater than 100 µM, a TGI [7] greater than 100 µM and a TGI [18] greater than 100 µM. The TGI [8] was greater than 100 µM, the TGI [9] was greater than 100 µM and the TGI [10] was greater than 100 µM. It also gave a TGI [11] greater than 100 µM, a TGI [12] greater than 100 µM and a TGI [19] greater than 100 µM. It also gave a TGI [13] greater than 100 µM, a TGI [14] greater than 100 µM and a TGI [20] greater than 100 µM. The TGI [15] was greater than 100 µM and the TGI [16] was greater than 100 µM.
For `CCc1cc(=O)n(/C(C)=C/c2ccccc2)n1C`, the TGI [2] was greater than 100 µM, the TGI [3] was greater than 100 µM and the TGI [4] was greater than 100 µM. The TGI [5] was greater than 100 µM, the TGI [6] was greater than 100 µM and the TGI [7] was greater than 100 µM. For the same compound, the TGI [18] was greater than 100 µM, the TGI [8] was greater than 100 µM and the TGI [9] was greater than 100 µM. It also gave a TGI [10] greater than 100 µM, a TGI [11] greater than 100 µM and a TGI [12] greater than 100 µM. The TGI [19] was greater than 100 µM, the TGI [13] was greater than 100 µM and the TGI [14] was greater than 100 µM. It also gave a TGI [20] greater than 100 µM, a TGI [15] greater than 100 µM and a TGI [16] greater than 100 µM.
For `COc1ccc(/C(C)=N/NC(=S)N(C)C)c(O)c1`, the TGI [17] was greater than 100 µM, the TGI [2] was greater than 100 µM and the TGI [3] was greater than 100 µM. The TGI [4] was 72.9 µM, the TGI [5] was 77.7 µM and the TGI [7] was 36 µM. It also gave a TGI [18] greater than 100 µM, a TGI [8] greater than 100 µM and a TGI [9] of 87.9 µM. For the same compound, the TGI [10] was greater than 100 µM, the TGI [11] was greater than 100 µM and the TGI [19] was greater than 100 µM. For the same compound, the TGI [13] was greater than 100 µM, the TGI [14] was greater than 100 µM and the TGI [20] was 23.2 µM. It also gave a TGI [15] of 20.1 µM and a TGI [16] greater than 100 µM.
With `O=c1c2cc3c(=O)n(CCc4ccccc4CO)c(=O)c3cc2c(=O)n1CCc1ccccc1CO` the TGI [1] was greater than 100 µM, the TGI [17] was greater than 100 µM and the TGI [3] was greater than 100 µM. The TGI [4] was greater than 100 µM, the TGI [5] was greater than 100 µM and the TGI [6] was greater than 100 µM. The TGI [7] was greater than 100 µM, the TGI [18] was greater than 100 µM and the TGI [9] was greater than 100 µM. It also gave a TGI [10] greater than 100 µM, a TGI [11] greater than 100 µM and a TGI [12] greater than 100 µM. The TGI [19] was greater than 100 µM, the TGI [13] was greater than 100 µM and the TGI [14] was greater than 100 µM. The TGI [20] was greater than 100 µM, the TGI [15] was greater than 100 µM and the TGI [16] was greater than 100 µM.
`Cc1cc(C)nc(NS(=O)(=O)c2ccc(Nc3c4ccccc4nc4c(C(=O)NCCO)cccc34)cc2)n1` gave a TGI [1] greater than 100 µM, a TGI [17] of 30 µM and a TGI [2] of 36.5 µM. The TGI [3] was 53.5 µM, the TGI [4] was greater than 100 µM and the TGI [6] was greater than 100 µM. For the same compound, the TGI [18] was greater than 100 µM, the TGI [8] was 27.8 µM and the TGI [9] was 50.9 µM. The TGI [10] was 41.3 µM, the TGI [11] was 22.9 µM and the TGI [19] was 58.6 µM. It also gave a TGI [13] greater than 100 µM, a TGI [14] greater than 100 µM and a TGI [20] greater than 100 µM. It also gave a TGI [15] greater than 100 µM and a TGI [16] greater than 100 µM.
Compound `COc1ccc(CN2C(=O)C(=O)N(C)C2=O)c2ccccc12` has a TGI [1] greater than 10 µM, a TGI [17] greater than 10 µM and a TGI [2] greater than 10 µM. For the same compound, the TGI [3] was greater than 10 µM, the TGI [4] was greater than 10 µM and the TGI [6] was greater than 10 µM. For the same compound, the TGI [7] was greater than 10 µM, the TGI [18] was greater than 10 µM and the TGI [8] was greater than 10 µM. It also gave a TGI [9] greater than 10 µM, a TGI [10] greater than 10 µM and a TGI [11] greater than 10 µM. The TGI [12] was greater than 10 µM, the TGI [19] was greater than 10 µM and the TGI [13] was greater than 10 µM. It also gave a TGI [14] greater than 10 µM, a TGI [20] greater than 10 µM and a TGI [15] greater than 10 µM. It also gave a TGI [16] greater than 10 µM.
